In ChEMBL document CHEMBL5331060, “Bisindole natural products: A vital source for the development of new anticancer drugs” (Eur J Med Chem, 2022):
In brackets after ≈: the same amount, converted by molar mass.

What was measured:
[1] = tested on: SMMC-7721; experiment: Antiproliferative activity against human SMMC-7721 cells assessed as inhibition of cell growth incubated for 48 hrs by MTS assay; format: functional, cell-based; conditions: SMMC-7721, 48 h
[2] = tested on: HT-29; experiment: Antiproliferative activity against human HT-29 cells assessed as inhibition of cell growth incubated for 48 hrs by MTS assay; format: functional, cell-based; conditions: HT-29, 48 h
[3] = tested on: A549; experiment: Antiproliferative activity against human A549 cells assessed as inhibition of cell growth incubated for 48 hrs by MTS assay; format: functional, cell-based; conditions: A549, 48 h
[4] = tested on: HeLa; experiment: Antiproliferative activity against human HeLa cells assessed as inhibition of cell growth incubated for 48 hrs by MTT assay; format: functional, cell-based
[5] = tested on: MCF7; experiment: Antiproliferative activity against human MCF7 cells assessed as inhibition of cell growth incubated for 48 hrs by MTT assay; format: functional, cell-based; conditions: MCF7, 48 h
[6] = tested on: SW480; experiment: Antiproliferative activity against human SW480 cells assessed as inhibition of cell growth incubated for 48 hrs by MTT assay; format: functional, cell-based; conditions: SW480, 48 h
[7] = tested on: HL-60; experiment: Antiproliferative activity against human HL-60 cells assessed as inhibition of cell growth incubated for 48 hrs by MTS assay; format: functional, cell-based; conditions: HL-60, 48 h
[8] = tested on: MCF7; experiment: Antiproliferative activity against human MCF7 cells assessed as inhibition of cell growth incubated for 48 hrs by MTS assay; format: functional, cell-based; conditions: MCF7, 48 h
[9] = tested on: SW480; experiment: Antiproliferative activity against human SW480 cells assessed as inhibition of cell growth incubated for 48 hrs by MTS assay; format: functional, cell-based; conditions: SW480, 48 h
[10] = tested on: KB; experiment: Antiproliferative activity against drug-sensitive human KB cells assessed as inhibition of cell growth; format: functional, cell-based
[11] = Antiproliferative activity against vincristine-resistant human KB cells assessed as inhibition of cell growth; format: functional, cell-based
[12] = tested on: HepG2; experiment: Antiproliferative activity against human HepG2 cells assessed as inhibition of cell growth by MTT assay; format: functional, cell-based
[13] = tested on: MCF7; experiment: Antiproliferative activity against human MCF7 cells assessed as inhibition of cell growth by MTT assay; format: functional, cell-based
[14] = tested on: LoVo; experiment: Antiproliferative activity against human LoVo cells assessed as inhibition of cell growth by MTT assay; format: functional, cell-based
[15] = tested on: A549; experiment: Antiproliferative activity against human A549 cells assessed as inhibition of cell growth incubated for 72 hrs by SRB assay; format: functional, cell-based; conditions: A549, 72 h
[16] = tested on: MCF7; experiment: Antiproliferative activity against human MCF7 cells assessed as inhibition of cell growth incubated for 72 hrs by SRB assay; format: functional, cell-based; conditions: MCF7, 72 h
[17] = tested on: HCT-116; experiment: Cytotoxicity against human HCT-116 cells assessed as reduction in cell viability at 20 uM measured after 48 hrs by MTS assay relative to control; format: functional
[18] = tested on: MCF7; experiment: Antiproliferative activity against human MCF7 cells assessed as inhibition of cell growth incubated for 24 hrs by MTT assay; format: functional, cell-based; conditions: MCF7, 24 h
[19] = tested on: A549; experiment: Antiproliferative activity against human A549 cells assessed as inhibition of cell growth; format: functional, cell-based
[20] = tested on: SMMC-7721; experiment: Antiproliferative activity against human SMMC-7721 cells assessed as inhibition of cell growth; format: functional, cell-based
[21] = tested on: MCF7; experiment: Antiproliferative activity against human MCF7 cells assessed as inhibition of cell growth; format: functional, cell-based
[22] = tested on: SW480; experiment: Antiproliferative activity against human SW480 cells assessed as inhibition of cell growth; format: functional, cell-based
[23] = Antiproliferative activity against mouse […] cells assessed as inhibition of cell growth; format: functional, cell-based
[24] = tested on: AGS; experiment: Antiproliferative activity against human AGS cells assessed as inhibition of cell growth incubated for 24 hrs by MTT assay; format: functional, cell-based
[25] = tested on: L1210; experiment: Antiproliferative activity against mouse L1210 cells assessed as inhibition of cell growth incubated for 24 hrs by MTT assay; format: functional, cell-based; conditions: L1210, 24 h
[26] = Antiproliferative activity against human BC cells assessed as inhibition of cell growth incubated for 24 hrs by MTT assay; format: functional, cell-based
[27] = tested on: KB; experiment: Antiproliferative activity against human KB cells assessed as inhibition of cell growth incubated for 72 hrs by neutral red based colorimetric assay; format: functional
[28] = tested on: HL-60; experiment: Antiproliferative activity against human HL-60 cells assessed as inhibition of cell growth incubated for 48 hrs by WST-1 assay; format: functional, cell-based; conditions: HL-60, 48 h
[29] = tested on: K562; experiment: Antiproliferative activity against human K562 cells assessed as inhibition of cell growth incubated for 48 hrs by WST-1 assay; format: functional, cell-based; conditions: K562, 48 h

CC[C@]12C=CCN3CC[C@]4(C(=C(C(=O)OC)C1)Nc1cc5c(cc14)[C@@H]1[C@H](O5)[C@@H](O)[C@@]4(CC)CC(C(=O)OC)=C5Nc6c(ccc(OC)c6OC)[C@@]56CCN1[C@@H]46)[C@@H]32
IC50 [1]: 300 nM | IC50 [2]: 750 nM | IC50 [3]: 3410 nM | IC50 [4]: 1420 nM | IC50 [5]: 1420 nM | IC50 [6]: 1420 nM

CC[C@]12C=C[C@H]([C@@]34CN5CC[C@]67C(=C(C(=O)OC)C[C@](CC)([C@@H]3O4)[C@H]56)Nc3cc(OC)ccc37)N3CC[C@]4(C(=C(C(=O)OC)C1)Nc1cc(OC)ccc14)[C@@H]32
IC50 [1]: 13100 nM | IC50 [3]: 13100 nM | IC50 [7]: 13100 nM | IC50 [8]: 13100 nM | IC50 [9]: 13100 nM

CC[C@H]1[C@@H]2CCN3CC[C@@]4(C5=C2C[C@@]2(CN5c5ccccc54)C4=Nc5ccccc5[C@]45CCN4CC[C@H]2[C@H](CC)[C@@H]45)[C@@H]13
IC50 [10]: 570 nM | IC50 [11]: 570 nM

CC[C@]1(O)C[C@H]2C[C@](C(=O)OC)(c3cc4c(cc3OC)N(C)[C@@H]3[C@]45CCN4CC=C[C@@](CC)(C[C@]3(O)C(=O)OC)[C@H]45)c3[nH]c4ccccc4c3CC[N+]([O-])(C2)C1
IC50 [12]: 28100 nM | IC50 [13]: 42700 nM | IC50 [14]: > 100000 nM

CC[C@H]1CN(C)[C@H]2Cc3c([nH]c4ccccc34)[C@H](c3c(OC)ccc4c5c([nH]c34)[C@]3(C(=O)OC)C[C@@H]4C[C@H](CC)[C@@H]3N(CC5)C4)C[C@H]1[C@@H]2C(=O)OC
IC50 [15]: 10900 nM | IC50 [16]: 10900 nM | Activity [17]: 40%

C/C=C1/CN(C)[C@H]2Cc3c([nH]c4ccccc34)[C@H](c3c(OC)ccc4c5c6n(c34)C[C@@H]3C[C@@H](CC)[C@@H](NCC5)[C@@]6(C(=O)OC)C3)C[C@H]1[C@]2(CO)C(=O)OC
IC50 [12]: 38100 nM

CC[C@@]12CC(C(=O)OC)=C3Nc4cc5c(cc4[C@@]34CCN(C[C@@H]3O[C@@H]31)[C@@H]24)[C@@H]1[C@H](O5)[C@@H](O)[C@@]2(CC)CC(C(=O)OC)=C3Nc4c(cc(O)c(OC)c4OC)[C@@]34CCN1[C@@H]24
IC50 [4]: 1420 nM | IC50 [5]: 1420 nM | IC50 [6]: 1420 nM

O=C1C[C@H]2c3cc(O)c(O)cc3[C@]3(Nc4ccccc4C3=O)[C@]23C(=O)c2ccccc2N13
IC50 [18]: 31700 nM

CC[C@@]12CC(C(=O)OC)=C3Nc4cc5c(cc4[C@@]34CCN(C[C@H]3O[C@H]31)[C@@H]24)[C@@H]1[C@H](O5)[C@@H](O)[C@@]2(CC)CC(C(=O)OC)=C3Nc4c(cc(O)c(OC)c4OC)[C@@]34CCN1[C@@H]24 [CONOPHYLLINE]
IC50 [19]: 170 nM | IC50 [20]: 170 nM | IC50 [21]: 170 nM | IC50 [22]: 170 nM

Brc1ccc2c(-c3c[nH]c(-c4c[nH]c5cc(Br)ccc45)n3)c[nH]c2c1 [NORTOPSENTIN A]
IC50 [23]: 7.6 µg/mL (≈ 16.7 µM)

Brc1ccc2c(-c3nc(-c4c[nH]c5ccccc45)c[nH]3)c[nH]c2c1 [NORTOPSENTIN B]
IC50 [23]: 7.8 µg/mL (≈ 20.7 µM)

Brc1ccc2c(-c3c[nH]c(-c4c[nH]c5ccccc45)n3)c[nH]c2c1 [NORTOPSENTIN C]
IC50 [23]: 1.7 µg/mL (≈ 4.51 µM)

O=C(C1=NC(c2c[nH]c3cc(Br)ccc23)CN1)c1c[nH]c2ccccc12 (configuration not stated) [SPONGOTINE A]
IC50 [24]: 1.1 µg/mL (≈ 2.7 µM) | IC50 [25]: 1.1 µg/mL (≈ 2.7 µM) | IC50 [26]: 10.7 µg/mL (≈ 26.3 µM)

CC[C@]1(O)C[C@@H]2CN(CCc3c([nH]c4ccccc34)[C@@](C(=O)OC)(c3cc4c(cc3OC)N(C)[C@H]3[C@@](O)(C(=O)OC)[C@H](OC(C)=O)[C@]5(CC)C=CCN6CC[C@]43[C@@H]65)C2)C1 [VINBLASTINE]
IC50 [27]: 8 nM

CC[C@]12CN3CCc4c([nH]c5ccccc45)[C@@](C(=O)OC)(c4cc5c(cc4OC)N(C)[C@H]4[C@@](O)(C(=O)OC)[C@H](OC(C)=O)[C@]6(CC)C=CCN7CC[C@]54[C@@H]76)C[C@@H](C3)[C@H]1O2 [VINLEUROSINE]
IC50 [28]: 56200 nM | IC50 [29]: 56200 nM
